{"source": "patent US20090269795A1", "about": "“Mutant alpha4betadelta GABAA receptor and methods of treating anxiety or irritability” (priority 2007, published 2009)", "key": {"[1]": {"system": "CA1 hippocampal pyramidal cells", "assay": "Tonic GABAergic current, whole cell patch clamp, hippocampal slice", "type": "cell-based, mouse", "description": "In whole cell recordings of the tonic current, the bath contained 2 mM kynurenic acid and 5-10 mM TEA to pharmacologically isolate the GABAergic current, and in some cases, 200 nM gabazine (6-imino-3-(4-methyoxyphenyl)-1 (6H)-pyridazinebutanoic acid hydrobromide) to selectively block the synaptic GABAergic currents^22. […] In some cases, 50 μM L-655,708 was added to the bath solution to block α5-containing GABAA receptors^23.\nTonic current was recorded as the difference current produced by 120 μM gabazine, which blocks all GABAA receptor, before and after 30 nM THP^24. Current was also recorded in response to 2 s 10 mV steps in the holding potential, and current-voltage curves generated to the steady-state current. Because fast-inactivating conductances would not be excluded in a voltage ramp, stable steady-state current responses were used instead to construct the current-voltage (IV) curves. Input resistance (Rm) was calculated from the current response to voltage steps from −60 to −40 mV using Ohm's Law. The reversal potential was determined by the […] of the IV curve (−90 to −10 mV). The gabazine-sensitive slope conductance was assessed as the slope of the linear portion of outward current plot recorded before and after THP after subtraction of the gabazine-generated current (in the presence of L-655,708 to block α5-GABAA receptors). Only data with a stable baseline and pipet access resistance <10 MΩ were included in the analysis."}, "[2]": {"target": "T1, α4[R353Q]β2δ GABAA receptors (UniProt P63138+Q9D6F4, R389Q)", "T1 construct": "expressed in transfected cells; host or cells: HEK-293", "assay": "Patch clamp of GABA-gated current at mutated receptors in HEK-293 cells", "type": "cell-based, mouse α4", "details": "30 nM THP", "description": "(§1) Whole cell patch clamp recording—GABA-gated currents were recorded at room temperature (20-22° C.) at a holding potential of −50 mV^14. The pipet solution contained (in mM): N-methyl-D-glucamine chloride 120, Cs4BAPTA 5 (Calbiochem), Mg-ATP 5, and an ATP regeneration system (20 mM Tris phosphocreatine and creatine kinase). Internal [Cl^−] or the holding potential were varied, using gluconate as the anion, to alter the direction of Cl^− flow, corrected for the junction potential. In some cases, current-voltage curves were constructed using the peak current response to agonist or agonist+THP across a range of holding potentials (−60 to +60) applied as 10 mV steps, or as a voltage ramp. […] Traces are presented as the average of 3 traces after subtraction of the leak current. […] This rapid application technique yields currents with a rapid rise phase. THP was also bath applied 30 s prior to tests of steroid effects. Currents were recorded using an Axopatch 1D amplifier (Axon Instruments) filtered at 2 kHz (four-pole Bessel filter) and detected at 10 kHz (pClamp 5.1). Analysis of peak current was accomplished with pClamp 9.2 and Origin software (Microcal).\n(§2) Mutagenesis: Site-directed mutations were made using the Quik-Change Mutagenesis Kit I or II (Stratagene Inc., La Jolla, Calif.). Numbering of mutated residues was based on the distance from arginine 99^19. Successful mutations were verified with double-stranded sequencing of end-products (Genewiz Inc., North Brunswick, N.J.).\n(§3) Recombinant receptors: Human embryonic kidney (HEK)-293 cells were transfected with α4 β2δ or other indicated subunit combinations (see Supplementary Methods) and co-transfected with enhanced green fluorescent protein for visualization. GABA-gated currents were recorded at room temperature (20-22° C.) at a holding potential of −50 mV^17 using a pipet solution containing 120 mM: N-methyl-D-glucamine chloride. Internal [Cl^−] or the holding potential were varied to alter the direction of Cl^− flow. […] Currents were recorded using an Axopatch 1D amplifier (Axon Instruments) filtered at 2 kHz (four-pole Bessel filter), detected at 10 kHz and analyzed with pClamp 9.2. Desensitization rate was determined using non-linear curve-fitting routines (Origin, Microcal; see next section)."}, "[3]": {"target": "T2, α4(R353C)β2δ GABAA receptors (UniProt P63138+Q9D6F4, R389C)", "T2 construct": "expressed in transfected cells; host or cells: HEK-293", "assay": "Patch clamp of GABA-gated current at mutated receptors in HEK-293 cells", "type": "cell-based, mouse α4", "details": "30 nM THP", "description": "as §1, §2, §3"}, "[4]": {"target": "T3, α4(R353K)β2δ GABAA receptors (UniProt P63138+Q9D6F4, R389K)", "T3 construct": "expressed in transfected cells; host or cells: HEK-293", "assay": "Patch clamp of GABA-gated current at mutated receptors in HEK-293 cells", "type": "cell-based, mouse α4", "details": "30 nM THP", "description": "as §1, §2, §3"}}}
{"smiles": "CC(=O)[C@H]1CC[C@H]2[C@@H]3CC[C@H]4C[C@H](O)CC[C@]4(C)[C@H]3CC[C@]12C", "note": "[THP, 3α-OH-5α[β]-pregnan-20-one]", "values": [{"measurement": "reduction of outward tonic current", "setting": "[1]; 30 nM THP, pubertal mice, low internal Cl−", "value": "48±6", "unit": "%"}, {"measurement": "effect on outward tonic current", "setting": "[1]; before puberty", "value": "increased the outward tonic current"}, {"measurement": "effect on tonic GABAergic current, inward", "setting": "[1]; pubertal, cell loaded with Cl− to produce inward current", "value": "increased the tonic GABAergic current"}, {"measurement": "effect on outward tonic current", "setting": "[1]; δ−/− mouse after puberty", "value": "increased the outward tonic current"}, {"measurement": "effect on inward current", "setting": "[2]", "value": "increased inward current"}, {"measurement": "steroid-induced reduction in outward current at mutant receptor", "setting": "[2]; R353Q", "value": "prevented the steroid-induced reduction in outward current"}, {"measurement": "steroid-induced reduction in outward current at mutant receptor", "setting": "[3]", "value": "prevented the steroid-induced reduction in outward current"}, {"measurement": "THP inhibition of outward current at mutant receptor", "setting": "[4]", "value": "did not prevent THP inhibition of outward current"}]}
